In patent US20260206755A1, “COMPOUNDS AND COMPOSITIONS HAVING KNOCK-DOWN OR BLOOD FEED INHIBITION ACTIVITY AGAINST INSECT PESTS” (priority 2017, published 2026):
Read-outs that look alike come from different tables or passages of the source.

System: Anopheles stephensi
Assay: Anopheles stephensi treated well plate contact test: knockdown and mortality
Type: in vivo
Conditions: for mortality at 0.2 ppm / pest or weed control at 0.2 ppm / mortality at 2 ppm / pest or weed control at 2 ppm / mortality at 20 ppm / pest or weed control at 20 ppm / mortality at 200 ppm / pest or weed control at 200 ppm: Anopheles stephensi; for mortality at 0.2 ppm / pest or weed control at 0.2 ppm / mortality at 2 ppm / pest or weed control at 2 ppm / mortality at 20 ppm / pest or weed control at 20 ppm / mortality at 200 ppm / pest or weed control at 200 ppm / mortality % 24, without TFNA-AM / mortality % 48, without TFNA-AM / Knock Down, without TFNA-AM: without TFNA-AM; for pest or weed control at 0.2 ppm / pest or weed control at 2 ppm / pest or weed control at 20 ppm / pest or weed control at 200 ppm / Knock Down, with TFNA-AM / Knock Down, without TFNA-AM: knockdown after 1 hour; for pest or weed control at 0.2 ppm / pest or weed control at 2 ppm / pest or weed control at 20 ppm / pest or weed control at 200 ppm: read-out: Knock Down, without TFNA-AM
How it was run: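 Well surfaces coated with ethanol solution of compound at a defined concentration, alone or with 2 ppm TFNA-AM, then dried. Five non-blood-fed 2–5-day-old adult females per well, fed 10% sucrose; knockdown scored at 1 hour, mortality at 24 and 48 hours, replicate means reported.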

[1] = test compound 0.2 ppm, after 24 hours, read-out: mortality % 24, without TFNA-AM
[2] = test compound 0.2 ppm, after 48 hours, read-out: mortality % 48, without TFNA-AM
[3] = test compound 2 ppm, after 24 hours, read-out: mortality % 24, without TFNA-AM
[4] = test compound 2 ppm, after 48 hours, read-out: mortality % 48, without TFNA-AM
[5] = test compound 20 ppm, after 24 hours, read-out: mortality % 24, without TFNA-AM
[6] = test compound 20 ppm, after 48 hours, read-out: mortality % 48, without TFNA-AM
[7] = test compound 200 ppm, after 24 hours, read-out: mortality % 24, without TFNA-AM
[8] = test compound 200 ppm, after 48 hours, read-out: mortality % 48, without TFNA-AM
[9] = test compound 200 ppm, adult females
[10] = test compound 0.2 ppm plus 2 ppm TFNA-AM, after 24 hours
[11] = test compound 0.2 ppm plus 2 ppm TFNA-AM, after 48 hours
[12] = test compound 0.2 ppm plus 2 ppm TFNA-AM
[13] = test compound 2 ppm plus 2 ppm TFNA-AM, after 24 hours
[14] = test compound 2 ppm plus 2 ppm TFNA-AM, after 48 hours
[15] = test compound 2 ppm plus 2 ppm TFNA-AM
[16] = test compound 20 ppm plus 2 ppm TFNA-AM, after 24 hours
[17] = test compound 20 ppm plus 2 ppm TFNA-AM, after 48 hours
[18] = test compound 20 ppm plus 2 ppm TFNA-AM
[19] = test compound 200 ppm plus 2 ppm TFNA-AM, after 24 hours
[20] = test compound 200 ppm plus 2 ppm TFNA-AM, after 48 hours
[21] = test compound 200 ppm plus 2 ppm TFNA-AM
[22] = test compound 0.2 ppm, after 24 hours
[23] = test compound 0.2 ppm, after 48 hours
[24] = test compound 2 ppm, after 24 hours
[25] = test compound 2 ppm, after 48 hours
[26] = test compound 20 ppm, after 24 hours
[27] = test compound 20 ppm, after 48 hours

Compound | mortality at 0.2 ppm [1] [%] | mortality at 0.2 ppm [2] [%] | pest or weed control at 0.2 ppm (test compound 0.2 ppm) [%] | mortality at 2 ppm [3] [%] | mortality at 2 ppm [4] [%] | pest or weed control at 2 ppm (test compound 2 ppm) [%] | mortality at 20 ppm [5] [%] | mortality at 20 ppm [6] [%] | pest or weed control at 20 ppm (test compound 20 ppm) [%] | mortality % 24, with TFNA-AM [10] [%] | mortality % 48, with TFNA-AM [11] [%] | Knock Down, with TFNA-AM [12] [%] | mortality % 48, with TFNA-AM [14] [%] | Knock Down, with TFNA-AM [15] [%] | mortality % 24, with TFNA-AM [16] [%] | mortality % 48, with TFNA-AM [17] [%] | Knock Down, with TFNA-AM [18] [%] | mortality % 24, with TFNA-AM [19] [%] | mortality % 48, with TFNA-AM [20] [%] | Knock Down, with TFNA-AM [21] [%] | also measured
CO/C=C(/C(=O)OC)c1ccccc1Oc1nc(C(C)(C)C)ns1 [Compound 48] | 0 | 0 | 20 | 100 | 100 | 60 | 100 | 100 | 100 | 80 | 100 | 100 | 100 | 100 | 100 | 100 | 100 | 100 | 100 | 100 | mortality at 200 ppm [7]: 100%; mortality at 200 ppm [8]: 100%; pest or weed control at 200 ppm [9]: 100%; mortality % 24, with TFNA-AM [13]: 100%
CC(C)=C[C@@H]1[C@@H](C(=O)O[C@H](C#N)c2cccc(Oc3ccccc3)c2)C1(C)C (relative stereo) [d-d, trans cyphenothrin] | – | – | – | – | – | – | – | – | – | 60 | 100 | 100 | 100 | 100 | 100 | 100 | 100 | – | – | – | mortality % 24, with TFNA-AM (test compound 0.02 ppm plus 2 ppm TFNA-AM, after 24 hours): 60%; mortality % 48, with TFNA-AM (test compound 0.02 ppm plus 2 ppm TFNA-AM, after 48 hours): 20%; Knock Down, with TFNA-AM (test compound 0.02 ppm plus 2 ppm TFNA-AM): 100%; mortality % 24, without TFNA-AM (test compound 0.02 ppm, after 24 hours): 0%; mortality % 48, without TFNA-AM (test compound 0.02 ppm, after 48 hours): 0%; Knock Down, without TFNA-AM (test compound 0.02 ppm): 0%; mortality % 24, without TFNA-AM [22]: 0%; mortality % 48, without TFNA-AM [23]: 0%; Knock Down, without TFNA-AM (test compound 0.2 ppm): 0%; mortality % 24, with TFNA-AM [13]: 100%; mortality % 24, without TFNA-AM [24]: 0%; mortality % 48, without TFNA-AM [25]: 0%; Knock Down, without TFNA-AM (test compound 2 ppm): 0%; mortality % 24, without TFNA-AM [26]: 40%; mortality % 48, without TFNA-AM [27]: 60%; Knock Down, without TFNA-AM (test compound 20 ppm): 0%
Cc1cc(C(F)(C(F)(F)F)C(F)(F)F)ccc1NC(=O)c1cccc(I)c1C(=O)NC(C)(C)CS(C)(=O)=O [Flubendiamide] | 0 | 0 | 0 | 0 | 0 | 0 | 0 | 0 | 0 | 80 | 40 | 100 | 40 | 100 | 80 | 40 | 100 | 60 | 40 | 100 | mortality at 200 ppm [7]: 0%; mortality at 200 ppm [8]: 0%; pest or weed control at 200 ppm [9]: 0%; mortality % 24, with TFNA-AM [13]: 80%
Abamectin | – | – | – | – | – | – | – | – | – | 20 | 27 | 100 | 53 | 100 | 93 | 100 | 100 | 100 | 100 | 100 | mortality % 24, without TFNA-AM [22]: 13%; mortality % 48, without TFNA-AM [23]: 20%; Knock Down, without TFNA-AM (test compound 0.2 ppm): 0%; mortality % 24, with TFNA-AM [13]: 47%; mortality % 24, without TFNA-AM [24]: 13%; mortality % 48, without TFNA-AM [25]: 33%; Knock Down, without TFNA-AM (test compound 2 ppm): 0%; mortality % 24, without TFNA-AM [26]: 53%; mortality % 48, without TFNA-AM [27]: 87%; Knock Down, without TFNA-AM (test compound 20 ppm): 7%; mortality % 24, without TFNA-AM (test compound 200 ppm, after 24 hours): 100%; mortality % 48, without TFNA-AM (test compound 200 ppm, after 48 hours): 100%; Knock Down, without TFNA-AM [9]: 47%
CN1COCN(Cc2cnc(Cl)s2)/C1=N\[N+](=O)[O-] [Thiamethoxam] | 0 | 0 | 0 | 40 | 40 | 0 | 60 | 40 | 0 | 20 | – | 100 | 100 | 100 | – | 100 | 100 | 100 | 100 | 100 | mortality at 200 ppm [7]: 80%; mortality at 200 ppm [8]: 80%; pest or weed control at 200 ppm [9]: 0%
CO/C=C(/C(=O)OC)c1ccccc1COc1cc(C(F)(F)F)nc(OC(C)C)n1 [Fluacrypyrim] | 0 | 0 | 0 | 0 | 0 | 0 | 0 | 0 | 0 | 60 | 40 | 100 | 100 | 100 | 100 | 100 | 100 | 100 | 100 | 100 | mortality at 200 ppm [7]: 20%; mortality at 200 ppm [8]: 80%; pest or weed control at 200 ppm [9]: 0%
